Activity calls are given as the source filed them.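 Rule for the calls: active = compounds giving half or more protection of infected cells from virus-caused growth loss, again on retest; inactive = the rest.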
Test system: CEM cells HIV-1 protection, formazan growth assay
Assay: NCI AIDS Antiviral Assay
Details: for IC50: measured here: growth of uninfected CEM cells
In short: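 Protection of CEM cells against HIV-1 measured as cell growth via soluble formazan read-out, with five concentrations tested on both infected and uninfected cells; failure to protect may reflect toxicity.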

Compound	EC50 [µM]	IC50 [µM]	outcome
COC1/C=C/OC2(C)Oc3c(C)c(O)c4c(O)c(c(/C=N/NC5OC(COC(=O)c6ccccc6)C(OC(=O)c6ccccc6)C5OC(=O)c5ccccc5)c(O)c4c3C2=O)NC(=O)C(C)=C/C=C/C(C)C(O)C(C)C(O)C(C)C(OC(C)=O)C1C (configuration not stated)	> 200	14.5	–
O=c1ccc2c(cc3ccc4cccc5ccc2c3c45)o1	–	–	inactive
Cc1ccsc1/C=N/Nc1ncccn1	> 200	> 200	–
CN(C)CNc1ncnc2onc(-c3ccccc3)c12	–	–	inactive
N#CCCn1c(CCC(=O)Nc2ccc(Cl)cc2Cl)n[nH]c1=S	66.1	97.7	–
CCOP(=O)(C/C(=N/NC(C)(C)C)C(=O)Nc1nc2ccc(C)cc2s1)OCC	> 58.9	> 58.9	–
Cc1ccc(C)c(NC(=O)CC/C(=N\NC(=O)c2c(O)ccc3ccccc23)C(C)C(=O)c2ccc(O)cc2)c1 (configuration not stated)	> 27.5	14.5	–
CCOC(=O)Cc1ccc2c(c1)sc1nc(-c3ccc(OC)cc3)cn12	> 200	60.3	–
CCCCNC(=S)Nc1nc(C(=O)NNC(=S)NCC)cs1	> 200	> 200	–
c1ccc2c(c1)[nH]c1c2nc2ncccn21	–	–	inactive
Cc1ccc(S(=O)(=O)n2c3c(c4ccccc42)CCN2C(=O)C(S(=O)(=O)c4ccccc4)=CCC32)cc1 (configuration not stated)	> 200	0.589	–
COc1ccc(/C(=C/n2ccnc2)C(O)c2ccc(OC)c(OC)c2)cc1OC (configuration not stated)	> 126	> 126	–
O=C(O)c1ccccc1C(=O)CCC(=O)c1ccccc1C(=O)O	> 200	> 200	–
CC1(C)CC(=O)C2=C(C1)OC1=C(CC(C)(C)CC1=O)C2c1ccccc1Cl (configuration not stated)	> 200	162	–
O=C(NS(=O)(=O)Nc1ccc(Cl)cc1)OCc1ccc(Cl)cc1Cl	> 200	34.7	–
COC(=O)C(C#N)C1NC(=O)c2ccccc21 (configuration not stated)	> 81.3	> 81.3	–
COc1c(O)c2ccccc2c2cc(O)ccc12	> 1050	5.25	–
O=C(/C=C/c1ccccc1)Oc1cccc(O)c1	> 200	5.01	–
C[C@]12CC=CC(=O)[C@@]1(C)CCC(=O)C2	–	–	inactive

Compound	EC50 [µM]	IC50 [µM]	outcome
CCc1cc2c(c3c1CCCC3)CC1(Cc3ccc(C(=O)OC)cc3C1)C2 (configuration not stated)	> 200	> 200	–
COc1ccccc1NC(=O)C1=C(C)NC(C)=C(C(=O)Nc2ccccc2OC)C1c1ccccc1F	–	–	inactive
O=[N+]([O-])c1nccn1COCCO	> 1320	> 1320	–
CC(=O)OC(C)C(=O)C1c2cccc(O)c2C(=O)c2c(O)cc(C)cc21 (configuration not stated)	> 191	3.24	–
Cc1ccc(NC(=O)C(=O)C(C2C(C)CC(=O)C2CC(=O)O)[N+](=O)[O-])cc1 (configuration not stated)	–	–	inactive
COC(=O)C1(Cc2ccccc2)Cc2ccccc2C1O (configuration not stated)	> 200	91.2	–
COC(=O)N1CC[C@]2(CC=C(C)C)c3ccccc3N(S(=O)(=O)c3ccccc3)[C@H]12	> 100	24.5	–
CN1C(=O)OC(c2ccc(Cl)cc2)C1=O (configuration not stated)	> 200	> 200	–
COC(=O)c1ccccc1COC(=O)c1cc(C(=CCC[C@H]2CC[C@@]3(C)[C@@H](CC[C@@H]4[C@@H]3CC[C@]3(C)[C@@H](C(C)CCCC(C)C)CC[C@@H]43)C2)c2cc(Cl)c(OCc3ccccc3C(=O)OC)c(C(=O)OCc3ccccc3C(=O)OC)c2)cc(Cl)c1OCc1ccccc1C(=O)OC (some centres not stated)	> 200	> 200	–
CC(c1ccccc1)n1cncc1C(=O)NN1CCN(C)CC1 (configuration not stated)	> 200	> 200	–
CSc1c(C)n([O-])c2cc(Cl)c(Cl)cc2[n+]1=O	> 100	2.82	–
Fc1ccc(C=NC23CC4CC(CC(C4)C2)C3)cc1	> 28.2	> 28.2	–
CSc1cc(-c2ccccn2)nc(-c2ccccn2)c1.CSc1cc(-c2ccccn2)nc(-c2ccccn2)c1.[Co+2].[O-][Cl+3]([O-])([O-])[O-]	> 200	0.12	–
N#Cc1c(NC(=O)CN2CCOCC2)c(C(=O)Nc2ccc(Cl)cc2)n2c1CCC2	> 50.1	> 50.1	–
CC(C)OP(=O)(OC(C)C)C(C(C)C)N(C)/C(N)=N\C1=NC(C(F)(F)F)(C(F)(F)F)N=C(C(C(F)(F)F)C(F)(F)F)O1 (configuration not stated)	> 200	0.0631	–
C=C(NC(=O)C(=C)NC(=O)c1ccc2c(n1)-c1coc(n1)C(=C)NC(=O)C(=C)NC(=O)c1nc(oc1C)C(=C)NC(=O)C(C(C)(C)O)NC(=O)C(=C)NC(=O)c1coc(n1)/C(=C/C)NC(=O)[C@H]([C@@H](C)O)NC(=O)c1csc-2n1)C(N)=O (some centres not stated)	> 100	> 100	–
N#CCCN(CCCN(C(=O)N(c1ccccc1)c1ccccc1)c1ccccc1)C(=O)Nc1ccccc1	> 200	10.5	–
C/C(=C\c1ccccc1)n1c(=O)cc(C)n1C	> 200	> 200	–
CCOP(=O)(OCC)C(c1ccc(F)cc1)N(C(=O)NC(F)(F)F)c1ccc(F)cc1 (configuration not stated)	> 200	> 200	–

Compound	EC50 [µM]	IC50 [µM]	outcome
CN1CCN(/C(N)=C(\C#N)C(=O)Nc2ccccc2)CC1	> 200	> 200	–
CC(C)C1=CC23CCC4C(C)(C(=O)O)CCCC4(C)C2CC1C1C(=O)N(CCCCCCN2C(=O)C4C5CC6C7(C)CCCC(C)(C(=O)O)C7CCC6(C=C5C(C)C)C4C2=O)C(=O)C13 (configuration not stated)	> 269	7.41	–
CC(=O)/C(=C/c1ccccc1Cl)C(=O)c1ccccc1	> 91.2	19.1	–
Cc1ccc2nc(NC(=O)/C(Cc3nc4ccc(Cl)cc4[nH]c3=O)=N\NC(C)(C)C)sc2c1	> 74.1	> 74.1	–
O=C1c2cccc3cc([N+](=O)[O-])cc(c23)C(=O)N1c1ccc(OCCN2CCCC2)cc1	> 200	5.62	–
COc1ccc2nc3ccccc3c(NCCCN(C)CCCl)c2c1	> 200	0.501	–
O=c1c(NO)c([N+](=O)[O-])cnn1-c1ccccc1	> 89.1	0.316	–
O=C1CC[C@H]2[C@@H]3N1c1ccccc1[C@@]31CCN3C/C(=C/CBr)[C@@H]2C[C@H]31	> 75.9	> 75.9	–
COc1ccc(/C=C2\CCC(C)C3=C(c4ccc(OC)c(OC)c4)C(C#N)=C(N)OC32)cc1OC (configuration not stated)	> 200	8.32	–
COC(=O)Nc1cn2c(n1)sc1ccccc12	> 200	15.8	–
Cc1ccc(N=Nc2c(C)nn(C(=O)CC(=O)Nc3ccc(Cl)cc3)c2C)cc1C	> 200	> 200	–
Cc1ccc(C=C(C(=O)O)C(=O)O)o1	145	> 200	–
N#CC(C#N)=Cc1cccc([N+](=O)[O-])c1	> 178	15.5	–
CC1CCc2[nH]nc(CC3CC(=O)NC(=O)C3)c2C1 (configuration not stated)	> 200	> 200	–
Nc1ccc(S(=O)(=O)N/N=C/c2ccc3c(c2)OCO3)cc1	> 81.3	> 81.3	–
CC(CNC(=O)CCC(N)C(=O)O)C(=O)O (configuration not stated)	–	–	inactive
Cc1ccc2[nH]c3c(c2c1)C1CCC(C(C)(C)C)CC1C1C(=O)N(c2ccc(Oc4ccccc4)cc2)C(=O)C31 (configuration not stated)	> 200	10.5	–
Cc1nnc2n1-c1ccccc1-c1[nH]c3ccccc3c1C2	> 200	22.4	–
CNC1=C2NC(=O)/C(C)=C\C=C\C(C)C(O)C(C)C(O)C(C)C(OC(C)=O)C(C)C(OC)/C=C/OC3(C)Oc4c(C)c(O)c(c(c4C3=O)C1=O)C2=O (configuration not stated)	> 200	3.8	–
